Assay results reported in patent US20110178104A1, “Anti-Heparin Compounds” (POLYMEDIX INC., priority 2010, published 2011).
In brackets after ≈: the same amount, converted by molar mass. Several values for one entry are separate records, joined by “and”; a condition that tells them apart may be missing. Equal entries are not always repeated.

Key:
[1] = test system: isolated human erythrocytes; assay: in vitro; type: cell-based; settings: for EC50: Homo sapiens, Erythrocyte, 1 h, human RBC, 1 hour at 37° C., read-out: Hemolysis EC50
In short: (§1)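 Test agent was serially diluted two-fold over 0.48–1000 µg/ml and incubated for 1 h at 37 °C with shaking, using erythrocytes from pooled human blood diluted in Tris-buffered saline pH 7.4 (0.22% stock). Hemolysis was measured as supernatant absorbance at 405 nm. A four-parameter logistic equation gave EC50, and melittin served as the positive control.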

enoxaparin [2] = assay: In vivo neutralization of enoxaparin in the rat; settings: for in vivo efficacy versus LMWH by anti-factor Xa activity (summary): compared with protamine; for neutralization of enoxaparin (aPTT and factor Xa assays, words): rat, enoxaparin 2 mg/kg IV
Description: Compounds were tested for their ability to neutralize enoxaparin coagulation inhibition in rats. Male Sprague-Dawley rats were used in this study (Charles River Laboratories). They were ten-weeks-old at the start of the study and their weights ranged from 319-362 g. Enoxaparin (2 mg/kg) was administered by IV injection to groups of six rats. After 3 min, saline, protamine or a test compound was administered by IV injection. Blood was collected before dosing with enoxaparin, and at 1, 3, 10, 30 and 60 min after dosing with the standard and test compounds. All treatments were dosed in a volume of 1 mL/kg. Blood was collected via the orbital sinus from three rats per group. At each time point, 1 mL of blood was collected from each animal into a single tube. The blood was analyzed using an AMEX Destiny Plus Coagulation Analyzer for activated partial thromboplastin time (APTT) and anti-Factor Xa (low-molecular weight).

enoxaparin [3] = assay: Enoxaparin-extended bleeding times, rat tail transection model; type: in vivo; settings: for neutralization of prolonged bleeding times: rat, enoxaparin 2 mg/kg IV
Description: Studies have now been done to examine effects on extended bleeding times caused by enoxaparin treatment. Male Sprague Dawley rats (Charles River) were administered 2 mg/kg enoxaparin by IV injection in the tail vein, followed 3 minutes later by test agent (IV, tail vein) at 2 and 5 mg/kg doses. Tails were then rapidly transected and bleeding time onto an absorbant pad was determined. Enoxaparin alone (no antagonist) extends bleeding time from 11 to 24 seconds.

fondaparinux [4] = assay: In vivo neutralization of fondaparinux in the rat; settings: for reduction of Factor Xa (anti-factor Xa) levels after fondaparinux: fondaparinux 0.5 mg/kg IV, test agent 2 and 5 mg/kg IV
Description: Compounds were selected to test fondaparinux neutralization in vivo. Rats were pre-treated with fondaparinux administered by IV injection at 0.5 mg/kg. The rats were then treated with a single IV injection of saline, protamine or the PMX compound. Blood was collected via the orbital sinus from three rats per group at the following time points: pre-dose, 1, 3, 10, 30 and 60 min. Plasma samples were prepared for analysis of anti-factor Xa activity using an AMEX Destiny Plus Coagulation Analyzer.

blood pressure = assay: Hemodynamic responses in the anesthetized rat; type: in vivo; settings: for hemodynamic liabilities (summary): rat, in vivo
Text: As a key safety issue for cationic compounds is reduction in blood pressure shortly after administration. To address this hemodynamic issue, a medicinal chemistry strategy with literature precedence of introducing carboxylic acid functionality was applied to the salicylamide series of compounds. […] Surgically prepared animals were purchased from Charles River Laboratories, Raleigh, N.C. Animals were anesthetized on the day of experiment with isoflurane (1.8-4%). Blood pressure and heart rate data were collected on a Grass Polygraph recorder. The test articles, vehicle or protamine dosing preparations were administered once to each rat by a 10 minute intravenous infusion three minutes following a single intravenous injection of heparin (50 U/kg). Each animal received a dose volume of 2.0 mL/kg. Blood pressure was recorded prior to treatment for approximately 1 minute and immediately following heparin, immediately following vehicle, test articles or protamine and at 5, 15, 30, and 60 minutes following dosing. The doses of test agent were either 8 mg/kg or 16 mg/kg. The differences in hemodynamic effect at 16 mg/kg were especially profound (FIG. 5).

[5] = Coagulation properties via ROTEM; settings: at fully efficacious doses
fondaparinux [6] = assay: FXa amidolytic assay (Example 10), fondaparinux; settings: for EC50: read-out: Fondap FXa EC50, fondaparinux 0.02 μg/mL, human antithrombin, bovine Factor Xa
Description: (§3) Two μl of test agent are added (range between 0.01 and 23 ug/ml) and incubated for 5 minutes at 23° C. Bovine Factor Xa was added to a final concentration of 0.636 nkat/mL and incubated for a further 10 minutes at 23° C.

[7] = Cytotoxicity colorimetric assay, HepG2; type: cell-based, human; parameters: Cytotoxicity HepG2, percent printed in parentheses after the concentration: concentration or dose not given beside the values; settings: human, HepG2 cells, one hour in serum-free media
In short: (§2)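 HepG2 cells (3×10^4/well, MEM + 10% FBS) and NIH/3T3 cells (2×10^4/well, DMEM + 10% BCS) were exposed to compound for 1 h in serum-free medium. Viability read by tetrazolium-to-formazan bioreduction after return to serum medium; EC50 from a four-parameter logistic fit.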

HepG2 cells = assay: Cytotoxicity colorimetric assay, HepG2; type: cell-based, human; parameters: Cytotoxicity HepG2, percent printed in parentheses after the concentration: concentration or dose not given beside the values; settings: for Cytotoxicity HepG2, percent printed in parentheses after the concentration: at the concentration given; for Cytotoxicity HepG2 EC50: one hour in serum-free media
In short: as §2

[8] = Cytotoxicity colorimetric assay, NIH/3T3; type: cell-based, mouse; settings: mouse, NIH/3T3 cells, one hour in serum-free media
In short: as §2

NIH/3T3 cells = assay: Cytotoxicity colorimetric assay, NIH/3T3; type: cell-based, mouse; settings: for Cytotoxicity 3T3, percent printed in parentheses after the concentration: at the concentration given; for Cytotoxicity 3T3 EC50: one hour in serum-free media
In short: as §2

UFH = assay: FXa amidolytic assay (Example 10), UFH; settings: read-out: Heparin FXa uM EC50; UFH 0.03 units/mL; human antithrombin, bovine Factor Xa
Description: as §3

enoxaparin [9] = assay: FXa amidolytic assay (Example 10), enoxaparin; settings: read-out: Enox FXa EC50; enoxaparin 0.1 ug/ml; human antithrombin, bovine Factor Xa
Description: as §3

in vitro = type: cell-based, human; settings: human, pH 7.4
In short: as §1

Unfractionated heparin = assay: aPTT clotting assay, UFH 0.4 U/mL in plasma (Example 10); type: biochemical; settings: unfractionated heparin 0.4 U/mL in plasma; aPTT clotting
Description: aPTT clotting Assay: Unfractionated heparin was mixed with plasma at a final concentration of 0.4 U/mL (or concentration which increases aPTT time to between 120 and 300 seconds). […] The ACL Elite Hemostasis analyzer (Beckman Coulter™) was used to add aPTT reagent (HemosIL SynthASil) to supplemented plasma. Clotting was initiated by addition of CaCl2 and time to clot was recorded.

tinzaparin = assay: FXa amidolytic assay (Example 10), tinzaparin; settings: read-out: Tinzap FXa EC50; tinzaparin 0.1 ug/ml; human antithrombin, bovine Factor Xa
Description: as §3

SMILES	hemolysis and cytotoxicity (summary) [1]	in vivo efficacy versus LMWH by anti-factor Xa activity (summary) (enoxaparin [2])	reduction of Factor Xa (anti-factor Xa) levels after fondaparinux (fondaparinux [4])	hemodynamic liabilities (summary) (blood pressure)	coagulation properties via ROTEM [5]	Potent LMWH-antagonists with superior anti-fondaparinux activity (summary) (fondaparinux [6])	EC50 at 1 h [7]	Cytotoxicity HepG2, percent printed in parentheses after the concentration (HepG2 cells)	Cytotoxicity HepG2 EC50 (HepG2 cells)	EC50 at 1 h [8]	Cytotoxicity 3T3, percent printed in parentheses after the concentration (NIH/3T3 cells)	Cytotoxicity 3T3 EC50 (NIH/3T3 cells)	neutralization of enoxaparin (aPTT and factor Xa assays, words) (enoxaparin [2])	in vivo efficacy versus fondaparinux (summary) (fondaparinux [4])	EC50 (UFH)	EC50 (enoxaparin [9])	hemolysis at 1 h (in vitro)	EC50 (Unfractionated heparin)	EC50 (tinzaparin)	EC50 (fondaparinux [6])	also measured
COc1cc(OC)c(C(=O)N[C@H]2CC[C@H](NC(=O)c3cc(C(=O)NCCN(C)C)c(OCCCCCNC(=N)N)cc3OCCCCCNC(=N)N)CC2)cc1C(=O)N[C@H]1CC[C@H](NC(=O)c2cc(C(=O)NCCN(C)C)c(OCCCCCNC(=N)N)cc2OCCCCCNC(=N)N)CC1 [Compound B]	non-hemolytic and low cytotoxicity	superior to protamine	lack of effectiveness	reduced hemodynamic liabilities	normal coagulation properties at fully efficacious doses	superior anti-fondaparinux activity	–	–	–	–	–	–	–	–	–	–	–	–	–	–	neutralization of prolonged bleeding times (enoxaparin [3]; test agent 5 mg/kg IV): not completely reverse
COc1ccc(NC(=O)[C@@H](CCCNC(=N)N)NC(=O)c2cc(NC(=O)[C@@H](CCCNC(=N)N)NC(=O)c3cc(NC(=O)[C@@H](CCCNC(=N)N)NC(=O)c4cc(NC(=O)[C@H](N)CCCNC(=N)N)ccc4OC)ccc3OC)ccc2OCC(=O)O)cc1C(=O)N[C@H](Cc1c[nH]c2ccccc12)C(N)=O [Compound 305]	non-hemolytic and low cytotoxicity	superior to protamine	effective in reducing Factor Xa activity	reduced hemodynamic liabilities	normal coagulation properties at fully efficacious doses	superior anti-fondaparinux activity	1000 µg/mL (≈ 681 µM)	50%	>1000 µg/mL	1000 µg/mL (≈ 681 µM)	50%	>1000 µg/mL	marginally more efficacious than the 3-Arg derivative	in vivo efficacy versus fondaparinux	0.343 µM	186 nM	–	–	–	–	in vivo efficacy versus LMWH by bleeding time (summary) (enoxaparin [3]; compared with protamine): superior to protamine; neutralization of prolonged bleeding times (enoxaparin [3]; test agent 2 mg/kg IV): completely neutralized; hemodynamic response profile (blood pressure; anesthetized rat, 8 or 16 mg/kg 10 minute IV infusion after heparin 50 U/kg): superior to protamine
COc1ccc(NC(=O)[C@H](CCCNC(=N)N)NC(=O)c2cc(NC(=O)[C@H](CCCNC(=N)N)NC(=O)c3cc(NC(=O)[C@H](CCCNC(=N)N)NC(=O)c4cc(NC(C)=O)ccc4OC)ccc3OCC(=O)O)ccc2OC)cc1C(=O)N[C@@H](Cc1c[nH]c2ccccc12)C(N)=O [Compound 314]	–	–	–	–	–	–	–	–	–	–	–	–	–	–	0.295 µM	208 nM	25%	> 10000 nM	199 nM	265 nM	EC50 [1]: 1000 µg/mL (≈ 738 µM)
COc1ccc(NC(=O)[C@H](CCCNC(=N)N)NC(=O)c2cc(NC(=O)[C@H](CCCNC(=N)N)NC(=O)c3cc(NC(=O)[C@H](CCCNC(=N)N)NC(=O)c4cc(NC(=O)[C@@H](N)CCCNC(=N)N)ccc4OC)ccc3OC)ccc2OCC(=O)O)cc1C(=O)N[C@@H](Cc1c[nH]c2ccccc12)C(N)=O [Compound 311]	non-hemolytic and low cytotoxicity	–	markedly reduced	–	normal coagulation properties at fully efficacious doses	superior anti-fondaparinux activity	1000 µg/mL (≈ 681 µM)	50%	>1000 µg/mL	1000 µg/mL (≈ 681 µM)	50%	>1000 µg/mL	marginally more efficacious than the 3-Arg derivative	in vivo efficacy versus fondaparinux	0.245 µM	101 nM and 140 nM	–	2540 nM and 1780 nM	108 nM and 150 nM	90 nM and 154 nM	–
COc1ccc(NC(=O)[C@H](CCCNC(=N)N)NC(=O)c2cc(NC(=O)[C@H](CCCNC(=N)N)NC(=O)c3cc(NC(=O)[C@H](CCCNC(=N)N)NC(=O)c4cc(NC(C)=O)ccc4OC)ccc3OC)ccc2OCC(=O)O)cc1C(=O)N[C@@H](Cc1c[nH]c2ccccc12)C(N)=O [Compound 312]	–	–	–	–	–	–	–	–	–	–	–	–	–	–	0.295 µM	152 nM	25%	> 10000 nM	169 nM	120 nM	EC50 [1]: 1000 µg/mL (≈ 738 µM)
